Experimental data published in patent US20050124658A1, “Decahydronaphtho[2,3-c]furan derivatives” (Segami Chemical Research Center, priority 2001, published 2005).

SMILES: O=C1OCC2C3OC(C4=C3CCCC4)C12 (stereo not shown)
- melting point: 105 to 106 °C

SMILES: O=C1OCC2C3OC(C4CCCCC43)C12 (stereo not shown)
- melting point: 90 to 91 °C

SMILES: O=C1OCC2C1CC1CCCCC1C2O (stereo not shown) [Example 5, Decahydro-4-hydoxy-naphtho[2,3-c]furan-1(3H)-one]
- melting point: 149 to 150 °C

SMILES: COC1OCC2C(O)C3CCCCC3CC12 (stereo not shown) [Example 6, Dodecahydro-1-methoxy-naphtho[2,3-c]furan-4-ol]
- melting point: 75 to 77 °C

SMILES: COC1OCC2C(=O)C3CCCCC3CC12 (stereo not shown) [Example 7, Decahydro-1-methoxy-naphtho[2,3-c]furan-4(1H)-one]
- melting point: 78 to 79 °C

SMILES: C=C1C2CCCCC2CC2C(OC)OCC12 (stereo not shown) [Example 8, Dodecahydro-1-methoxy-4-methylenenaphtho[2,3-c]furan]
- melting point: 53 to 55 °C

SMILES: COC1OCC2C1CC1CCCCC1C2COC(=O)c1ccc(Br)cc1 (stereo not shown) [Example 10, Dodecahydro-4-(4-bromophenyl)carboxymethyl-1-methoxynaphtho[2,3-c]furan]
- melting point: 107 to 108 °C
